Laboratory results reported in patent US20250092003A1, “LIPID COMPOUND, COMPOSITION CONTAINING SAME AND USE” (SOUTH CHINA UNIVERSITY OF TECHNOLOGY, priority 2022, published 2025).

Key:
[1] = system: melanoma (B16F10-Luc) cell line capable of stably expressing firefly luciferase (Luc); test: siLuc transfection by lipid nanoparticles into B16F10-Luc cells, firefly luciferase expression; format: cell-based; conditions: for siLuc transfection efficiency: lipid nanoparticles (lipid compound:DSPC:cholesterol:DSPE-PEG 38:10:50:2), siRNA 50 ng/well, N/P ratios 4:1, 8:1 and 16:1, 24 h after transfection
Protocol: B16F10-Luc cells were inoculated into a 96-well cell culture plate. On the next day, transfection was performed when the cells grew to about 80%.
The mother solutions were stored in a refrigerator at −20° C., diluted as needed during use, and then mixed at a molar ratio of 38:10:50:2 (lipid compounds:DSPC:cholesterol:DSPE-PEG). The siLuc was dissolved in a citrate buffer solution (pH-4), where a volume of the citrate buffer solution was two times the volume of an ethanol-lipid mixture obtained above. Finally, the citrate buffer solution containing siLuc (pH=4) and the ethanol-lipid mixture were quickly and fully mixed and then shaken and incubated at room temperature for 30 min for self-assembly to form lipid nanoparticles. The assembled lipid nanoparticles were added to the 96-well cell culture plate containing the B16F10-Luc for transfection, respectively. Before the transfection, a culture solution in the culture plate was sucked out, and 80 μL of a new culture medium was added, where an added amount of the siRNA was 50 ng/well. Nitrogen-phosphorus ratios (N/P ratio) of the protonable lipid compounds to the siRNA were 4:1, 8:1 and 16:1, respectively.
Positive control group: The siLuc was transfected by Lipo2000, a commercial transfection reagent. Transfection was performed according to an operating instruction of the Lipo2000. 50 ng of the siLuc was added to 5 μL of Opti-MEM, and 0.3 μL of the Lipo2000 was added to another 50 μL of Opti-MEM. Finally, an siRNA Opti-MEM solution was added to a Lipo2000 Opti-MEM solution, evenly mixed, incubated at room temperature for 15 min, and then added to a 96-well cell culture plate. Before the transfection, a culture solution in the culture plate was sucked out, and 80 μL of a new culture medium was added, where an added amount of the siRNA was 50 ng/well.
Negative control group: Only the B16F10-Luc cells were used without transfection.
After the transfection was performed for 24 h, the cells were lysed and subjected to centrifugation to remove cell debris and contents, a supernatant was taken, a firefly luciferase substrate was added, and an expression amount of firefly luciferase was determined so as to compare the siLuc transfection efficiency of the synthesized lipid compounds.
The mother solutions were stored in a refrigerator at −20° C., diluted as needed during use, and then mixed at a molar ratio of 38:10:50:2 (lipid compounds:DSPC:cholesterol:DSPE-PEG). The siLuc was dissolved in a citrate buffer solution (pH=4), where a volume of the citrate buffer solution was two times the volume of an ethanol-lipid mixture obtained above. […]

293T cell line = test: plasmid DNA (pDNA-GFP-Luc) transfection by lipid nanoparticles into 293T cells; format: cell-based; conditions: pDNA-GFP-Luc 80 ng/well, N/P ratios 8:1, 16:1 and 32:1, 48 h after transfection

SMILES	siLuc transfection efficiency [1]	inhibition of gene expression of the firefly luciferase ([1]; lipid nanoparticles with siLuc, N/P ratios 4:1 to 32:1, 24 h after transfection)	plasmid transfection efficiency (firefly luciferase expression) compared with PEI (293T cell line)
CCCCCCCCCCCCCCCC(=O)OCC(O)CN(CCCN1CCCC1)CC(O)COC(=O)CCCCCCCCCCCCCCC (centres unmarked) [A2-C16]	about 95%		
CCCCCCCCCCCC(=O)OCC(O)CN(CCCN(C)C)CC(O)COC(=O)CCCCCCCCCCC (centres unmarked) [A1-C12]	about 95%		
CCCCCCCCCCCC(=O)OCC(O)CN(CCCN1CCCC1)CC(O)COC(=O)CCCCCCCCCCC (centres unmarked) [A2-C12]	about 95%		
CCCCCCCCCCCC(=O)OCC(O)CN(CCN(CCN(CC(O)COC(=O)CCCCCCCCCCC)CC(O)COC(=O)CCCCCCCCCCC)CCN(CC(O)COC(=O)CCCCCCCCCCC)CC(O)COC(=O)CCCCCCCCCCC)CC(O)COC(=O)CCCCCCCCCCC (centres unmarked) [A12-C12]		almost completely inhibited	equivalent to that of the commercial reagent PEI
